Experimental data: patent EP2161266A1, “Benzofuran derivatives as orexin receptor antagonists” (EVOTEC Neurosciences GmbH, priority 2008, dated 2010)

How the values were obtained:
[1] = target: T1, human Orexin-1 receptor (hOX1R) (Homo sapiens, UniProt O43613); assay: Ca2+-flux assay for IC50 determination in CHO-hOX1R cells (Orexin-A stimulated); assay type: cell-based; conditions: 5nM Orexin-A agonist, fluo-4 fluorescence, compounds 1.28nM to 20µM, triplicates, read-out: 0X1
T1 construct: host or cells: CHO-K1
T1 sequence (O43613 1-425): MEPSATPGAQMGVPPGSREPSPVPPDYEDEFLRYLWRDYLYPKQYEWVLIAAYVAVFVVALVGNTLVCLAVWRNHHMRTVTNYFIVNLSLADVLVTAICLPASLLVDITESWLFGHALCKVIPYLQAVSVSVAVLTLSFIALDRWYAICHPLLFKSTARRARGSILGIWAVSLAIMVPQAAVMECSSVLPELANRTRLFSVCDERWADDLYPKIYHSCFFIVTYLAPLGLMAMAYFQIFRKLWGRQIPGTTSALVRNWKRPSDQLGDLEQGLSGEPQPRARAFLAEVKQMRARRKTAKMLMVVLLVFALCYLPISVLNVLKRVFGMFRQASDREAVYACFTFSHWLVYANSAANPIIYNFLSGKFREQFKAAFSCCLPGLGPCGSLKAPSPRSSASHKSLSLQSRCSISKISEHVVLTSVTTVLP
From the text: A CHO-K1 cell line stably expressing human Orexin-1 receptor (hOX1R, coding sequence of AF041243) was obtained from Euroscreen/PerkinElmer (CHO-hOX1R, ES-330-C). A plasmid containing the human Orexin-2 receptor (hOX2R) cDNA was purchased from RZPD (RZPDo834A1045-pT-REx-DEST30). The human Orexin-2 receptor coding region was amplified in a gradient PCR reaction using hOX2Rfor (5' ccaggatccgc […]) and hOX2Rrev (5' […]) primers containing restriction sites for the restriction enzymes BamHI and NotI. The PCR reaction was performed with the LightCycler system from Roche Applied Science. The amplified DNA fragment was digested with restriction enzymes BamHI and Notl (Fermentas) and subsequently cloned into the BamHI/NotI sites of the pFB-Neo vector (Stratagene) thereby generating plasmid pFB-Neo-hOX2R. For a stably expressing CHO-hOX2R cell line viral transduction of CHO-K1 cells were performed by using the pFB-Neo-hOX2R plasmid and the pVPack vector system from Stratagene according to the manufacturer's manual. Cells expressing the hOX2 receptor were selected using G418 at a final concentration of 500µg/ml and single cell clones were produced by limited dilution cloning.
CHO-hOX1R cells were grown in HAM F12 Nutrient Mixture (Sigma, N6658), 10%Fetal Bovine Serum (Sigma, F9665), 1% Penstrep (Sigma, p4333) and […] G418 (Sigma, A1720). CHO-hOX2R cells were grown in DMEM F12 medium (Sigma, D8437) supplemented with 10%Fetal Bovine Serum (Sigma, F9665), 1% Penstrep (Sigma, p4333) and […] G418 (Sigma, A1720). Cells were maintained under 5% CO2 atmosphere at 37°C. Cells were passaged every 2-3 days.
CHO-hOX1R and CHO-hOX2R cells were seeded at a density of 7500 cells per well into black, 384 well Costar Cellbind plates and cultured overnight in the appropriate cell culture medium as described above without G418 selection. The next day the medium was removed and the cells were incubated for 1.5hrs at 37°C in fluo-4, AM dye solution [2µM fluo-4,AM (Molecular Probes; F-14202, Lot#28C1-12) in 5mM probenecid (Sigma, P-8761, Lot# 121K1662), 0.1% Bovine Serum Albumin (BSA, MERCK, 1.12018.0100), 1xHBSS (Invitrogen, 14025-050), 20mM HEPES (Invitrogen,. 15630-056)]. […] All compound concentrations were measured in triplicates. Subsequently, agonist solution (5nM Orexin-A, TOCRIS, 1455) in 5mM probenecid, 0.1% BSA, 1xHBSS, 20mM HEPES was added during incubation of the plate at 37°C in the fluorescence plate reader (FlexStation, Molecular Devices). Fluorescence was measured for 0-60 seconds per well at an excitation of 485nm and emission of 538nm. For EC50 determination of Orexin-A the cells were incubated as described above for 20min at 37°C in probenecid buffer (5mM probenecid, 0.1% BSA, 1xHBSS, 20mM HEPES, 1%DMSO) without compound solution. Agonist injection occurred in the fluorescence plate reader (FlexStation, Molecular Devices) at different concentrations ranging from 0-100nM in 5mM probenecid, 0.1% BSA, 1xHBSS, 20mM HEPES. Detection of fluorescence was as described above.

OX1 = target: T2, OX1 (Mus musculus, UniProt P58307); conditions: pretreatment before naloxone-precipitated withdrawal; Sharf et al, Biol Psychiatry, 2008; cited from earlier work
T2 sequence (P58307 1-416): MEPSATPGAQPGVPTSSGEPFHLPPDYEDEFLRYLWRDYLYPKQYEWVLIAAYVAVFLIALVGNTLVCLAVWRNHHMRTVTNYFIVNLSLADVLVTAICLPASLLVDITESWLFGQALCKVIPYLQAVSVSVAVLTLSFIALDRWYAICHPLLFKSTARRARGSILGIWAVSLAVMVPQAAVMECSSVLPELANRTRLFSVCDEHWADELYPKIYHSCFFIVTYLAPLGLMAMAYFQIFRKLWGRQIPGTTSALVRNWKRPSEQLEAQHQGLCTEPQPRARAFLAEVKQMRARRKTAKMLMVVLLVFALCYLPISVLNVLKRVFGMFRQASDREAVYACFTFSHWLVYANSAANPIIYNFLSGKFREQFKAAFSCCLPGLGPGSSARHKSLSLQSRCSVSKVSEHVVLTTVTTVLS

Row | Molecule | IC50 [1] [nM] | withdrawal symptoms (OX1)
1 | Cc1c(C(=O)Nc2ccc3c(c2)OCCO3)oc2ccccc12 [Example 1, N-(2,3-Dihydro-1,4-benzodioxin-6-yl)-3-methyl-2-benzofurancarboxamide] | < 3000 | 
2 | CCN(CC)c1ccc(NC(=O)c2oc3ccccc3c2C)cc1 [Example 2, N-[4-(Diethylamino)phenyl]-3-methyl-2-benzofurancarboxamide] | < 300 | 
3 | Cc1nc2ccc(NC(=O)c3oc4ccccc4c3C)cc2o1 [Example 3, N-(2-Methyl-6-benzoxazolyl)-3-methyl-2-benzofurancarboxamide] | < 300 | 
4 | CCN(CC)c1ccc(NC(=O)c2oc3ccccc3c2COC)cc1 [Example 4, N-[4-(Diethylamino)phenyl]-3-(methoxymethyl)-2-benzofurancarboxamide] | < 1000 | 
5 | CCc1c(C(=O)Nc2ccc(N(CC)CC)cc2)oc2ccccc12 [Example 5, N-[4-(Diethylamino)phenyl]-3-ethyl-2-benzofurancarboxamide] | < 300 | 
6 | CCc1c(C(=O)Nc2ccc3nc(C)oc3c2)oc2ccccc12 [Example 6, N-(2-Methyl-6-benzoxazolyl)-3-ethyl-2-benzofurancarboxamide] | < 300 | 
7 | COc1ccc(NC(=O)c2oc3ccccc3c2C)cc1Cl [Example 7, N-(3-Chloro-4-methoxyphenyl)-3-methyl-2-benzofurancarboxamide] | < 3000 | 
8 | Cc1c(C(=O)Nc2ccc3c(c2)OCCCO3)oc2ccccc12 [Example 8, N-(3,4-dihydro-2H-1,5-benzodioxepin-7-yl)-3-methyl-2-benzofurancarboxamide] | < 3000 | 
9 | CCOc1ccc(NC(=O)c2oc3ccccc3c2C)cc1 [Example 9, N-(4-Ethoxyphenyl)-3-methyl-2-benzofurancarboxamide] | < 3000 | 
10 | Cc1c(C(=O)Nc2ccc3c(ccn3C)c2)oc2ccccc12 [Example 10, N-(1-Methyl-1H-indol-5-yl)-3-methyl-2-benzofurancarboxamide] | < 1000 | 
11 | CCN(CC)c1ccc(NC(=O)c2oc3ccccc3c2OC)cc1 [Example 12, N-[4-(Diethylamino)phenyl]-3-methoxy-2-benzofurancarboxamide] | < 300 | 
12 | CCN(CC)c1ccc(NC(=O)c2cc3ccccc3o2)cc1 [Example 13, N-[4-(Diethylamino)phenyl]-2-benzofurancarboxamide] | < 1000 | 
13 | Cc1nc2ccc(NC(=O)c3oc4ccccc4c3C)cc2s1 [Example 14, N-(2-Methyl-6-benzothiazolyl)-3-methyl-2-benzofurancarboxamide] | < 1000 | 
14 | CCN(CC)c1ccc(NC(=O)c2oc3ccccc3c2NC(C)=O)cc1 [Example 15, N-[4-(Diethylamino)phenyl]-3-(acetylamino)-2-benzofurancarboxamide] | < 3000 | 
15 | Cc1nc2ccc(NC(=O)Nc3ccnc4cccnc34)cc2o1 [SB-334867] |  | striking reduction in several withdrawal symptoms
16 | N-(4-Thioanisolyl)-3-methyl-2-benzofurancarboxamide [Example 11] | < 1000 | 
